In one experiment the target is CDK4/D1 (Homo sapiens, UniProt P11802). The experiment can be described thus: ADP Glo Kinase assay CDK4/D1. In kind it is biochemical. The settings on record: CDK4D1; for Ki: read-out: CDK inhibition, Ki (μM) CDK4D1; for remaining activity at 10 µM: compound at 10 μM, read-out: residual activity (%) at 10 μM CDK4D1. The protocol:
(§1) Eurofins Pharma Discovery or Reaction Biology Corporation Kinase Profiler services were used to measure inhibition of CDKs and other kinases by radiometric assay. Inhibition of CDK4/D1, CDK6/D3 and CDK9/T1 were also determined in-house using ADP Glo Kinase assays (Promega Corporation, Madison, USA). Briefly, the kinase reaction for CDK4/D1 and CDK6/D3 was performed with kinase reaction buffer ([…] Tris base pH 7.5, 20 mM MgCl2, 0.4 mM DTT), 0.1 mg/ml BSA and RB-CTF substrate (retinoblastoma protein 1 C-terminal fraction). For CDK9/CyclinT1, the kinase reaction was performed with standard assay buffer and Kinase Dilution Buffer and RBER-IRStide substrate. Serial dilutions of 1:3 were prepared for test compounds for 10 concentrations (from 10 μM to 0.5 nM). The kinase reactions were started by addition of ATP, incubated for 40 min at 37° C. and then stopped by adding 10 μL of ADP Glo reagent. After incubation at room temperature in the dark for 40 min, 20 μL of kinase detection reagent was added per well and incubated for 40 min. Luminescence was measured using an EnVision Multilabel plate reader (PerkinElmer, Buckinghamshire, UK). Positive and negative controls were performed in the presence and absence of CDK kinases, respectively. Half-maximal inhibition (IC50) values were calculated using a 4-parameter logistic non-linear regression model with Graphpad prism (Version 6.0). Apparent inhibition constants (Ki) values were calculated from Km (ATP) and IC50 values for the respective kinases.

The target of a further experiment is CDK9/T1 (Homo sapiens, UniProt P50750). Put plainly: ADP Glo Kinase assay CDK9/T1. The class given is biochemical. The settings on record: CDK9T1; read-out: CDK inhibition, Ki (μM) CDK9T1. How it is done: as §1
(ADP-Glo first removes unused ATP, then detects ADP through luciferase.)

Experiment [1] addresses T1, CDKs and other kinases (Homo sapiens, UniProt P06493).
T1 construct: other: CDK1B; residual activity (%) at 10 μM CDK1B; compound at 10 μM
Put plainly: Radiometric kinase assay (Eurofins Pharma Discovery or Reaction Biology Corporation Kinase Profiler). In kind it is biochemical. The settings on record: CDK1B; for Ki: read-out: CDK inhibition, Ki (μM) CDK1B; for remaining activity at 10 µM: compound at 10 μM, read-out: residual activity (%) at 10 μM CDK1B. How it is done:
as §1

In experiment [2] the target is T2, CDKs and other kinases (Homo sapiens, UniProt P24941).
T2 construct: other: CDK2A; residual activity (%) at 10 μM CDK2A; compound at 10 μM
Described as above. The class given is biochemical. The following applies: CDK2A; for Ki: read-out: CDK inhibition, Ki (μM) CDK2A; for remaining activity at 10 µM: compound at 10 μM, read-out: residual activity (%) at 10 μM CDK2A. How it is done: as §1

Experiment [3] deals with T3, CDKs and other kinases (Homo sapiens, UniProt P50613).
T3 construct: other: CDK7H; residual activity (%) at 10 μM CDK7H; compound at 10 μM
The description is as above. The following applies: CDK7H; for Ki: read-out: CDK inhibition, Ki (μM) CDK7H; for remaining activity at 10 µM: compound at 10 μM, read-out: residual activity (%) at 10 μM CDK7H. In kind it is biochemical. How it is done: as §1

Another experiment deals with leukemia cell lines. The experiment can be described thus: Resazurin cell viability assay on leukemia cell lines (72 h growth inhibition, GI50). In kind it is cell-based. The following applies: Homo sapiens, MV4-11 cells. The protocol:
Compounds from Example 1 were subjected to a standard MTT (3-(4,5-dimethylthiazol-2-yl)-2,5-diphenyltetrazolium bromide) and resazurin assays on solid tumour cell lines and leukemia cell lines, respectively, as previously reported (Wang S et al., J Med Chem 47:1662-1675, 2004 and Diab S. et al. CheMedChem 9:962-972, 2014). Compound concentrations required to inhibit 50% of cell growth (GI50) were calculated using non-linear regression analysis.
(In general: The colour change of resazurin is a common sign of viable cells or microbes.)

By Ki is commonly meant the equilibrium dissociation constant of an inhibitor or competing ligand from its target. The term GI50 denotes the concentration that inhibits growth by half. Higher therefore signals less potent growth inhibition.

T1 sequence (P06493 whole entry): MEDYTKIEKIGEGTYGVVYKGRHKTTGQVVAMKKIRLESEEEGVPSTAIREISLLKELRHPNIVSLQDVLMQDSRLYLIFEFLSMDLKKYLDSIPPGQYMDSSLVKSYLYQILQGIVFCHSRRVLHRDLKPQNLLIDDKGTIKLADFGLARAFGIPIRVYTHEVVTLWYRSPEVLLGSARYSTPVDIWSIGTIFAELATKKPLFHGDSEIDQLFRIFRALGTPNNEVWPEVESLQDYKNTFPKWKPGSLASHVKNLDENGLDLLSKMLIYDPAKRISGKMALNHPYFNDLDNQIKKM
CDK9/T1, sequence (P50750 whole entry): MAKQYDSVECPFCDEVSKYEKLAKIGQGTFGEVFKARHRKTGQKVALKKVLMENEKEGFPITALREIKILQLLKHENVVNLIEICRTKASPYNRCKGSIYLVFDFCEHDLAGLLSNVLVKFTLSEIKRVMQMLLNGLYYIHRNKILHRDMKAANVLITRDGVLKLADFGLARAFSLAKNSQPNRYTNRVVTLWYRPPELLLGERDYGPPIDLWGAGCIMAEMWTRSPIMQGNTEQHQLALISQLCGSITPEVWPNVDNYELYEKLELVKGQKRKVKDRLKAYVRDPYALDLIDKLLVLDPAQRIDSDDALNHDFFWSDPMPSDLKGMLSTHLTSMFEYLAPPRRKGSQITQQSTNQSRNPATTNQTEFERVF
CDK9/T1, sequence (O60563 whole entry partner): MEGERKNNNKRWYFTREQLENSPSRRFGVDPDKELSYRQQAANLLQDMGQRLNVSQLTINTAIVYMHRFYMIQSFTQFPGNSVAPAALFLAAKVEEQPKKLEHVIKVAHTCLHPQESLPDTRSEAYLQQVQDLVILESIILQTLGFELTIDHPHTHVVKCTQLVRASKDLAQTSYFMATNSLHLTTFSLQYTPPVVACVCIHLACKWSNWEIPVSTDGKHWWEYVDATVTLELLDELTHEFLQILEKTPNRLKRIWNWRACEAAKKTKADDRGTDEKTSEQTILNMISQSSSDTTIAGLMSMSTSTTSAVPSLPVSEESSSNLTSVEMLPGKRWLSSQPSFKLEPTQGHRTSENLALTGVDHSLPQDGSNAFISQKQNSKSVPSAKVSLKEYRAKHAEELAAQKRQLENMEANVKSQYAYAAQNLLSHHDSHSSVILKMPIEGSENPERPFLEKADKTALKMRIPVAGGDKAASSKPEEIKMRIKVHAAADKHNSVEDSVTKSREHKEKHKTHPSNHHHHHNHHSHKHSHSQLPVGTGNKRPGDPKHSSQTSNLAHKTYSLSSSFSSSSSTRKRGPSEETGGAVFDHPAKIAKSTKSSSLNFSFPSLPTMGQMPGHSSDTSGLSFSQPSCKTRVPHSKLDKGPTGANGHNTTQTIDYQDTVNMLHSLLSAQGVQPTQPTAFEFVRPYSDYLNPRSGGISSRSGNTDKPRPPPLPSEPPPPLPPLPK
CDK4/D1, sequence (P11802 whole entry): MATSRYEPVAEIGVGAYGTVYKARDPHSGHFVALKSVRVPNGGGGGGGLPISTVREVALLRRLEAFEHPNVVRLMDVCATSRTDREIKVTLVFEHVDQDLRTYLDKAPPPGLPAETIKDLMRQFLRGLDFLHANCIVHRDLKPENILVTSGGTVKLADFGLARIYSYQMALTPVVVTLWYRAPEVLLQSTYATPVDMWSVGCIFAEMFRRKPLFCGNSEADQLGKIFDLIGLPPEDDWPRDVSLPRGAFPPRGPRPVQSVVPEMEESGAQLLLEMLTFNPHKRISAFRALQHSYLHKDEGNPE
CDK4/D1, sequence (P24385 whole entry partner): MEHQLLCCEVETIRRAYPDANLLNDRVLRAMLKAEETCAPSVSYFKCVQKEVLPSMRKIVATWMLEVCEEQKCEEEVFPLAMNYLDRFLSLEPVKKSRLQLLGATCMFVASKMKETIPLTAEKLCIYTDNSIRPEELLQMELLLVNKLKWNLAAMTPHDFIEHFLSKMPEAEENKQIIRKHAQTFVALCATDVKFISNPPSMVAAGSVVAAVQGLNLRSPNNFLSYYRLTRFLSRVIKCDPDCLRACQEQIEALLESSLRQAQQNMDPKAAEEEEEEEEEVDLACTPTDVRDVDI
T3 sequence (P50613 whole entry): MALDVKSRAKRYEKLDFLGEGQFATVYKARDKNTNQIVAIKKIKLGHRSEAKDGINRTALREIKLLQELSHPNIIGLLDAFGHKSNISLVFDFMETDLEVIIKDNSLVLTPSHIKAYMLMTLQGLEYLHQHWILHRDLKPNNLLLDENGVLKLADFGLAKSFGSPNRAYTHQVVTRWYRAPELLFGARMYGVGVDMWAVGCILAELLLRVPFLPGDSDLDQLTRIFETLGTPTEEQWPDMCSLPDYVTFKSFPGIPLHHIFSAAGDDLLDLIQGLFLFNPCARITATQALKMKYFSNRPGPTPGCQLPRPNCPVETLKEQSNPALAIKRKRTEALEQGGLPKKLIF

For `CN1CCC(Nc2ncc(F)c(-c3cnc4ccccn34)n2)CC1` [Compound 19, 5-Fluoro-4-(imidazo[1,2-a]pyridin-3-yl)-N-(1-methylpiperidin-4-yl)pyrimidin-2-amine], the inhibition constant Ki on CDK4/D1 turned out to be 0.004 µM; at CDK9/T1, 0.078 µM; at CDKs and other kinases [1] it was 0.795 µM; at CDKs and other kinases [2], 0.527 µM; on CDKs and other kinases [3] it was 0.27 µM. In the experiment with leukemia cell lines, this compound registered a GI50 of 0.084 ± 0.008 µM.

Take `CC(C)(C)OC(=O)N1CCC(Nc2ncc(F)c(-c3cnc4ccccn34)n2)CC1` [Compound 20, tert-Butyl 4-((5-fluoro-4-(imidazo[1,2-a]pyridin-3-yl)pyrimidin-2-yl)amino)piperidine-1-carboxylate]: the remaining activity at 10 µM on CDK4/D1 was determined as 29%; on CDKs and other kinases [1] it was 56%; at CDKs and other kinases [2], 54%. For the same compound, the Ki turned out to be 0.829 µM on CDK9/T1; 1.75 µM on CDKs and other kinases [3]. The GI50 in the experiment with leukemia cell lines is 0.092 ± 0.01 µM.

Regarding `Fc1cnc(NC2CCNCC2)nc1-c1cnc2ccccn12` [Compound 21, 5-Fluoro-4-(imidazo[1,2-a]pyridin-3-yl)-N-(piperidin-4-yl)pyrimidin-2-amine], the remaining activity at 10 µM on CDK4/D1 was -11%. For the same compound, the Ki at CDK9/T1 amounted to 0.069 µM; at CDKs and other kinases [1], 0.479 µM; at CDKs and other kinases [2], 0.321 µM; at CDKs and other kinases [3], 0.6 µM. Halving of growth in the experiment with leukemia cell lines (GI50) required 0.003 ± 0.001 µM.

As to `COc1cnc(N[C@H]2CC[C@H](N)CC2)nc1-c1cnc2ccc(-c3ccccc3)cn12` [Compound 89, (1r,4r)-N^1-(5-Methoxy-4-(6-phenylimidazo[1,2-a]pyridin-3-yl)pyrimidin-2-yl)cyclohexane-1,4-diamine], the remaining activity at 10 µM at CDK4/D1 is 21%; at CDKs and other kinases [1] it was 10%; at CDKs and other kinases [2] it was 7%; on CDKs and other kinases [3], 12%. In addition, the Ki at CDK9/T1 amounted to 0.027 µM. In the experiment with leukemia cell lines, this compound showed a GI50 of 0.003 ± 0.001 µM.

For `Cc1cnc(NC2CCC(N(C)C)CC2)nc1-c1cnc2ccc(Nc3cncc(F)c3)cn12` (centres unmarked) [Compound 120, N^1-(4-(6-((5-Fluoropyridin-3-yl)amino)imidazo[1,2-a]pyridin-3-yl)-5-methylpyrimidin-2-yl)-N^4,N^4-dimethylcyclohexane-1,4-diamine], the Ki at CDK4/D1 came to 0.87 µM; at CDK9/T1, 0.015 µM. Also, the remaining activity at 10 µM was determined as 31% at CDKs and other kinases [1]; 4% at CDKs and other kinases [2]; 29% at CDKs and other kinases [3]. Moreover, the GI50 in the experiment on leukemia cell lines was found to be 0.023 ± 0.01 µM.

On to `Cc1cnc(N2CCC3(CCNC3=O)CC2)nc1-c1cnc2ccccn12` [Compound 124, 8-(4-(Imidazo[1,2-a]pyridin-3-yl)-5-methylpyrimidin-2-yl)-2,8-diazaspiro[4.5]decan-1-one], for which, at CDK9/T1, the Ki is above 5 µM. Also, the remaining activity at 10 µM on CDKs and other kinases [1] came to 87%; on CDKs and other kinases [2], 34%; at CDKs and other kinases [3], 91%. The compound also showed a GI50 in the experiment with leukemia cell lines above 5 µM.

Take `Cc1cnc(N[C@H]2CC[C@H](NS(C)(=O)=O)CC2)nc1-c1cnc2ccc(Nc3cncnc3)cn12` [Compound 126, N-((1r,4r)-4-((5-Methyl-4-(6-(pyrimidin-5-ylamino)imidazo[1,2-a]pyridin-3-yl)pyrimidin-2-yl)amino)cyclohexyl)methanesulfonamide]: the remaining activity at 10 µM at CDK4/D1 was 14%; at CDKs and other kinases [1], 2%; on CDKs and other kinases [3], 94%. In addition, the Ki on CDK9/T1 was determined as 0.111 µM; at CDKs and other kinases [2] it was 0.089 µM. The compound also returned a GI50 in the experiment on leukemia cell lines above 5 µM.

Consider `Cc1cnc(N[C@H]2CC[C@H](N)CC2)nc1-c1cnc2ccc(Nc3ccccn3)cn12` [Compound 128, (1r,4r)-N^1-(5-Methyl-4-(6-(pyridin-2-ylamino)imidazo [1,2-a]pyridin-3-yl)pyrimidin-2-yl)cyclohexane-1,4-diamine], for which the remaining activity at 10 µM on CDK4/D1 turned out to be 38%; at CDKs and other kinases [1], 45%; on CDKs and other kinases [3] it was 34%. For the same compound, the Ki is 0.31 µM on CDK9/T1; 0.706 µM on CDKs and other kinases [2]. Moreover, the GI50 with leukemia cell lines is 0.068 ± 0.006 µM.

`COCCN[C@H]1CC[C@@H](Nc2ncc(C)c(-c3cnc4ccc(-c5ccccc5)cn34)n2)CC1` [Compound 130, (1s,4s)-N^1-(2-Methoxyethyl)-N^4-(5-methyl-4-(6-phenylimidazo[1,2-a]pyridin-3-yl)pyrimidin-2-yl) cyclohexane-1,4-diamine]: the remaining activity at 10 µM at CDK4/D1 is 23%; on CDKs and other kinases [1], 25%; at CDKs and other kinases [2], 23%; at CDKs and other kinases [3], 40%. Further, the inhibition constant (Ki) at CDK9/T1 worked out at 1.12 µM. The compound further returned a GI50 in the experiment on leukemia cell lines of 0.172 ± 0.001 µM.

Regarding `CCN[C@H]1CC[C@H](Nc2ncc(C)c(-c3cnc4ccc(-c5ccccc5)cn34)n2)CC1` [Compound 131, (1r,4r)-N^1-Ethyl-N^4-(5-methyl-4-(6-phenylimidazo[1,2-a]pyridin-3-yl)pyrimidin-2-yl)cyclohexane-1,4-diamine], the remaining activity at 10 µM was determined as 24% on CDK4/D1; 29% on CDKs and other kinases [1]; 44% on CDKs and other kinases [2]; 20% at CDKs and other kinases [3]. Also, the Ki on CDK9/T1 came to 0.32 µM. In the experiment on leukemia cell lines, this compound had a GI50 of 0.132 ± 0.059 µM.

On to `CCN[C@H]1CC[C@@H](Nc2ncc(C)c(-c3cnc4ccc(-c5ccccc5)cn34)n2)CC1` [Compound 132, (1s,4s)-N^1-ethyl-N^4-(5-Methyl-4-(6-phenylimidazo[1,2-a]pyridin-3-yl)pyrimidin-2-yl)cyclohexane-1,4-diamine], for which the remaining activity at 10 µM on CDK4/D1 was found to be 16%; on CDKs and other kinases [1], 25%; at CDKs and other kinases [2], 23%; on CDKs and other kinases [3], 40%. On CDK9/T1, the Ki was determined as 1.12 µM. The compound also displayed a GI50 with leukemia cell lines of 0.012 ± 0.008 µM.

With `Cc1cnc(N[C@H]2CC[C@H](N)CC2)nc1-c1cnc2cc(F)c(-c3ccccc3)cn12` [Compound 159, (1r,4r)-N^1-(4-(7-Fluoro-6-phenylimidazo[1,2-a]pyridin-3-yl)-5-methylpyrimidin-2-yl)cyclohexane-1,4-diamine], the remaining activity at 10 µM at CDK4/D1 turned out to be 43%; on CDKs and other kinases [1], 31%; on CDKs and other kinases [2], 11%; at CDKs and other kinases [3] it was 20%. Also, the Ki at CDK9/T1 was 0.061 µM.

Take `CN1CCC(N[C@H]2CC[C@H](Nc3ncc(F)c(-c4cnc5ccc(-c6ccccc6)cn45)n3)CC2)CC1` [Compound 160, (1r,4r)-N^1-(5-Fluoro-4-(6-phenylimidazo[1,2-a]pyridin-3-yl)pyrimidin-2-yl)-N^4-(1-methylpiperidin-4-yl) cyclohexane-1,4-diamine]: the remaining activity at 10 µM on CDK4/D1 was determined as 0%; at CDKs and other kinases [1], 3%; at CDKs and other kinases [2], 7%. Also, the Ki at CDK9/T1 came out at 0.014 µM; at CDKs and other kinases [3] it was 0.099 µM.

Consider `Fc1cnc(N[C@H]2CC[C@H](NC3CCOCC3)CC2)nc1-c1cnc2ccc(-c3ccccc3)cn12` [Compound 161, (1r,4r)-N^1-(5-fluoro-4-(6-phenylimidazo[1,2-a]pyridin-3-yl)pyrimidin-2-yl)-N^4-(tetrahydro-2H-pyran-4-yl) cyclohexane-1,4-diamine], for which the remaining activity at 10 µM on CDK4/D1 came out at 3%; on CDKs and other kinases [2] it was 6%. Besides, the Ki at CDK9/T1 is 0.016 µM; at CDKs and other kinases [1] it was 0.074 µM; on CDKs and other kinases [3] it was 0.094 µM.

These data come from patent US11111245B2, “Derivatives of N-cycloalkyl/heterocycloalkyl-4-(imidazo[1,2-a]pyridine)pyrimidin-2-amine as therapeutic agents” (Aucentra Therapeutics Pty Ltd, priority 2017, dated 2021).
